Assay results as given in ChEMBL document CHEMBL3352660, “Design, synthesis and pharmacological evaluation of novel polycyclic heteroarene ethers as PDE10A inhibitors: part II” (Bioorg Med Chem Lett, 2014).
The source made the active and inactive calls. No cut-off for these calls is given here.

Assays:
[1] = target: T1, cAMP and cAMP-inhibited cGMP 3',5'-cyclic phosphodiesterase 10A (Homo sapiens, UniProt Q9Y233); assay: Inhibition of human recombinant GST-tagged PDE10A using [3H]-cAMP as substrate at 1 uM after 30 mins by scintillation proximity assay
T1 sequence (Q9Y233 whole entry): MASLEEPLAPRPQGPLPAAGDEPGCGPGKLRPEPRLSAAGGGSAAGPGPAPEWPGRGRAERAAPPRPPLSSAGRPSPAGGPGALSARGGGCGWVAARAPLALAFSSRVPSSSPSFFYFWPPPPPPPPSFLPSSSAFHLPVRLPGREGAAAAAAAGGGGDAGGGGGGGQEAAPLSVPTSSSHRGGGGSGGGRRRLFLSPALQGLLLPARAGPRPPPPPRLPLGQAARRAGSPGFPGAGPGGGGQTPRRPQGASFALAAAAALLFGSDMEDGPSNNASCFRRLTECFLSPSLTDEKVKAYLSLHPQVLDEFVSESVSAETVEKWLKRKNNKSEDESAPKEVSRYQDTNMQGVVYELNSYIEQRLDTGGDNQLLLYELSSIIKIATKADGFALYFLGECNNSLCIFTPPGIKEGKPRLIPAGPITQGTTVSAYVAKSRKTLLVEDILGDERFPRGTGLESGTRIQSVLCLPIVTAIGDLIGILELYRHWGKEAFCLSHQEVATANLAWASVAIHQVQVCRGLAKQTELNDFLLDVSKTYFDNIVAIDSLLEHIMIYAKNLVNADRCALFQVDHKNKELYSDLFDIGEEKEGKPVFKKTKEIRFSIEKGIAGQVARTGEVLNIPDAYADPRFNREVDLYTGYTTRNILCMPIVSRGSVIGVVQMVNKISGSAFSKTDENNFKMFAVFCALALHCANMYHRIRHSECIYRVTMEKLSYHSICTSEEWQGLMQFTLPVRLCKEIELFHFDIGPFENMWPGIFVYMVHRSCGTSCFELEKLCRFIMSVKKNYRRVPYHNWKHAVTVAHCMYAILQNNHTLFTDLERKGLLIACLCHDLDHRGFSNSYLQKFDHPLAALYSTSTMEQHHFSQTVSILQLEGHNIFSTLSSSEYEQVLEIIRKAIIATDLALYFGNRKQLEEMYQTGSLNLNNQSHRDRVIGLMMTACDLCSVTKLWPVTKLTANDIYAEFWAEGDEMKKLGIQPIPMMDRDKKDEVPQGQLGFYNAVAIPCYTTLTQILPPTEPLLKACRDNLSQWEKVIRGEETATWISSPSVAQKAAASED

[2] = target: T1, cAMP and cAMP-inhibited cGMP 3',5'-cyclic phosphodiesterase 10A; assay: Inhibition of human recombinant GST-tagged PDE10A using [3H]-cAMP as substrate after 30 mins by scintillation proximity assay
[3] = target: T2, cAMP and cAMP-inhibited cGMP 3',5'-cyclic phosphodiesterase 10A (Mus musculus, UniProt Q8CA95); assay: Inhibition of mouse recombinant GST-tagged PDE10A using [3H]-cAMP as substrate after 30 mins by scintillation proximity assay
T2 sequence (Q8CA95 whole entry): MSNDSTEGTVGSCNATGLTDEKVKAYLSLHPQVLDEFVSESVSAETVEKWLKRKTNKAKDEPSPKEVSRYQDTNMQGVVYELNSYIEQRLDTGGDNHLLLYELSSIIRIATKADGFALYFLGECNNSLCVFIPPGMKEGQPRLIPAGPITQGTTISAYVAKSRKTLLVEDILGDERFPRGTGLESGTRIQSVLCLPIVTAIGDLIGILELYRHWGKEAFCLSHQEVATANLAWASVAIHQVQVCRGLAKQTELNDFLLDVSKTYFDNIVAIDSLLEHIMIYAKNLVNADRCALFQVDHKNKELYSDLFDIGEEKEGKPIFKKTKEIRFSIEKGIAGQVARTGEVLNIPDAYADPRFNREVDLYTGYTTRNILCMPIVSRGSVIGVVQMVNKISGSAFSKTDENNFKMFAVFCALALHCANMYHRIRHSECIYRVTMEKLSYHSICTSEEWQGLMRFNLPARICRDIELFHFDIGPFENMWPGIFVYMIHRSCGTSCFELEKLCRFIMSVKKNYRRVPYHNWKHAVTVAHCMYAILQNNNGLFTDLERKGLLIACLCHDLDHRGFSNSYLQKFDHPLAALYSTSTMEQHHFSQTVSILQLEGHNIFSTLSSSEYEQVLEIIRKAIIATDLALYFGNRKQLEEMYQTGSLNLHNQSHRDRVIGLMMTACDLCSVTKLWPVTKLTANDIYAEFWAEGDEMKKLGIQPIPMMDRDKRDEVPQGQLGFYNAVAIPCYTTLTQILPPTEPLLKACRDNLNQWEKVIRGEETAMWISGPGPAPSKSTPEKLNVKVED

[4] = target: cGMP-dependent 3',5'-cyclic phosphodiesterase (Homo sapiens) (UniProt O00408); assay: Inhibition of human recombinant PDE2A using cAMP as substrate at 10 uM after 30 mins by HTRF method
Chain of cGMP-dependent 3',5'-cyclic phosphodiesterase (Homo sapiens) (O00408 whole entry): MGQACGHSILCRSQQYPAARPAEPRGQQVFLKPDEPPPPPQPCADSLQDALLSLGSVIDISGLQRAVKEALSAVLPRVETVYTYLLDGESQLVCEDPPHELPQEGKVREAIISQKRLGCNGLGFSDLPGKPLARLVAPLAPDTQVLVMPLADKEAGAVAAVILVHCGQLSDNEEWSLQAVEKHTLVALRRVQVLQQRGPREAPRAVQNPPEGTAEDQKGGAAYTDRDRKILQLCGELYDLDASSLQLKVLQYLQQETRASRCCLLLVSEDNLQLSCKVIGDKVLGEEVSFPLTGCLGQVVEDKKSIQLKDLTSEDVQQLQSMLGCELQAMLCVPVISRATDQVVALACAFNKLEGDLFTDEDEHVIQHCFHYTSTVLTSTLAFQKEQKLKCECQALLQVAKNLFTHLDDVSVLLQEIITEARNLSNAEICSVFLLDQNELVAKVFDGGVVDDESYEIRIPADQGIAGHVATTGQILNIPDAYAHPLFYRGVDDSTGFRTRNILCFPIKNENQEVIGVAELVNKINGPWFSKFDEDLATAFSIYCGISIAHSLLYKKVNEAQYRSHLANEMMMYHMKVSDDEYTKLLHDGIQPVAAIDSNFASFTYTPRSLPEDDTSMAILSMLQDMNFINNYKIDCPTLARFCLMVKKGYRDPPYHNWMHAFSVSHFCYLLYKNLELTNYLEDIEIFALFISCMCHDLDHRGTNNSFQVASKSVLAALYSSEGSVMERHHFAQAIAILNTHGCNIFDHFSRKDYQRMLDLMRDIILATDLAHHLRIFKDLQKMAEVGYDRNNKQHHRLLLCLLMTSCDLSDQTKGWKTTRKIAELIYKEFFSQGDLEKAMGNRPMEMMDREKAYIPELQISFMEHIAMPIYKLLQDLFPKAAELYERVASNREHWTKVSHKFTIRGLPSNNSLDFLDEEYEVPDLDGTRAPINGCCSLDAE

[5] = target: cGMP-inhibited 3',5'-cyclic phosphodiesterase 3A (Homo sapiens) (UniProt Q14432); assay: Inhibition of human recombinant PDE3A using cAMP as substrate at 10 uM after 30 mins by HTRF method
Chain of cGMP-inhibited 3',5'-cyclic phosphodiesterase 3A (Homo sapiens) (Q14432 whole entry): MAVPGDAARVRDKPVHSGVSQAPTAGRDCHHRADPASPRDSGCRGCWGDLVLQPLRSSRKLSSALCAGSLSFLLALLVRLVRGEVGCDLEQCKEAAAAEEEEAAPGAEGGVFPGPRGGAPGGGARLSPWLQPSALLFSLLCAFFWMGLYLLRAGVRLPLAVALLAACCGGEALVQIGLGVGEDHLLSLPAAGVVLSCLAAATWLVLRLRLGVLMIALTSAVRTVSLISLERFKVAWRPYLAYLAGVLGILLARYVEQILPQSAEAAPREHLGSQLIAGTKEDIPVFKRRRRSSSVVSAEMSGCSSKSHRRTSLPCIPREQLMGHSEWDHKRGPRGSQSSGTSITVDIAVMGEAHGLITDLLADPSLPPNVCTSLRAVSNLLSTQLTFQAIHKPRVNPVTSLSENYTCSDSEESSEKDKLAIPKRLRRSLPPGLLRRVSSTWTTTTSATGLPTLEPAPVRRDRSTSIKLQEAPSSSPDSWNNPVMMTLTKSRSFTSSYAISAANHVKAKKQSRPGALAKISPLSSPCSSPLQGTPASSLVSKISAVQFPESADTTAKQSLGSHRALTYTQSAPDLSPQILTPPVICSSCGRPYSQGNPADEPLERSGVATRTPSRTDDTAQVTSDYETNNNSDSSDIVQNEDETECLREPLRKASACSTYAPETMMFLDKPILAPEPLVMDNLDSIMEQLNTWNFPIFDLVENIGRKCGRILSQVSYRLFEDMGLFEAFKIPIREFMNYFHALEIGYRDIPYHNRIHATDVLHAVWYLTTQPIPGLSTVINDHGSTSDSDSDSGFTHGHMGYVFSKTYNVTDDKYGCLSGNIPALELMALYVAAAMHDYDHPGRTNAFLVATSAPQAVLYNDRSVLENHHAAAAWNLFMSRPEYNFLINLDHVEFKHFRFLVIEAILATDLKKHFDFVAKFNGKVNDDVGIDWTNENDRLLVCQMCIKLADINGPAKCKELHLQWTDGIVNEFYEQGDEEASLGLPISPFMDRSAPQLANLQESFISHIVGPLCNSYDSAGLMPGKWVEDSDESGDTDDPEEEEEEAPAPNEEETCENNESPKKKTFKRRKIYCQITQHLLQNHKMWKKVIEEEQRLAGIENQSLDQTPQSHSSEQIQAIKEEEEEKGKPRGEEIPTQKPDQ

[6] = target: 3',5'-cyclic-AMP phosphodiesterase 4D (Homo sapiens) (UniProt Q08499); assay: Inhibition of human recombinant PDE4D using [3H]-cAMP as substrate at 1 uM after 30 mins by two-step radiometric assay
Chain of 3',5'-cyclic-AMP phosphodiesterase 4D (Homo sapiens) (Q08499 whole entry): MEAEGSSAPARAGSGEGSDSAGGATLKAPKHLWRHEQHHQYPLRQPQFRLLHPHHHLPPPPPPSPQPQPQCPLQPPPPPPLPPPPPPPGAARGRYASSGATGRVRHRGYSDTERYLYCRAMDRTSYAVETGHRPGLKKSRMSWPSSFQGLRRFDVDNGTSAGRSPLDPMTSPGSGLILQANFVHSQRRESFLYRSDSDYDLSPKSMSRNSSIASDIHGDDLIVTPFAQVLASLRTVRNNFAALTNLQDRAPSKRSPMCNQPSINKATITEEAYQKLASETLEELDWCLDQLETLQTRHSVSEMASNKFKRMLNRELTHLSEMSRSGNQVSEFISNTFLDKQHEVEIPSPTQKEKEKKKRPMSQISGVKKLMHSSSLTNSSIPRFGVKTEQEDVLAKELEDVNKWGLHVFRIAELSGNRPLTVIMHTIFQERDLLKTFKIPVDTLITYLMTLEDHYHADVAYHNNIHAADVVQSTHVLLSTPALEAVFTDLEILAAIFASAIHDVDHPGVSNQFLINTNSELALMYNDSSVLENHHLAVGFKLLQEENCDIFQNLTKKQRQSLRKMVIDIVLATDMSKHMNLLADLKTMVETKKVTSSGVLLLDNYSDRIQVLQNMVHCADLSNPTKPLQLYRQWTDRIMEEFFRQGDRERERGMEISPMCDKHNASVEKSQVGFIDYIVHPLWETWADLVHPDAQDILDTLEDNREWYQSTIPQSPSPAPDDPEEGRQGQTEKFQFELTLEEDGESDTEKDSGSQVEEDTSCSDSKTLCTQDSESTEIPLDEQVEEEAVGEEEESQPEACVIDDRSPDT

[7] = target: 3',5'-cyclic-AMP phosphodiesterase 4D (Homo sapiens) (UniProt Q08499); assay: Inhibition of human recombinant PDE4D using [3H]-cAMP as substrate at 10 uM after 30 mins by two-step radiometric assay
[8] = target: cGMP-specific 3',5'-cyclic phosphodiesterase (Homo sapiens) (UniProt O76074); assay: Inhibition of human recombinant PDE5A using […] as substrate at 1 uM after 30 mins by scintillation proximity assay
[9] = Metabolic stability in Wistar rat liver microsomes incubated for 10 mins prior to NADPH addition measured after 60 mins by LC/MS/MS analysis; type: ADME; conditions: read-out: Stability
[10] = Metabolic stability in CD1 mouse liver microsomes incubated for 10 mins prior to NADPH addition measured after 60 mins by LC/MS/MS analysis; type: ADME; conditions: read-out: Stability
[11] = Metabolic stability in Beagle dog liver microsomes incubated for 10 mins prior to NADPH addition measured after 60 mins by LC/MS/MS analysis; type: ADME, Canis lupus familiaris; conditions: read-out: Stability
[12] = Metabolic stability in cynomolgus monkey liver microsomes incubated for 10 mins prior to NADPH addition measured after 60 mins by LC/MS/MS analysis; type: ADME, Macaca fascicularis; conditions: read-out: Stability
[13] = Half life in Swiss albino mouse at 10 mg/kg, po; type: ADME, organism-based; design: dose 10 mg/kg, route oral; conditions: in vivo
[14] = Cmax in Sprague-Dawley rat at 10 mg/kg, po; type: ADME, organism-based; design: dose 10 mg/kg, route oral; conditions: in vivo
[15] = Half life in Sprague-Dawley rat at 10 mg/kg, po; type: ADME, organism-based; design: dose 10 mg/kg, route oral; conditions: in vivo
[16] = Plasma clearance in iv dosed Swiss albino mouse; type: ADME, organism-based
Rattus norvegicus [17] = assay: Antipsychotic activity in Sprague-Dawley rat psychosis model assessed as reversal of MK-801-induced locomotion at 3 mg/kg, po administered 2 hrs prior to MK-801 challenge measured every 5 mins for 1 hr starting 15 mins post MK-801 injection relative to vehicle-treated control; type: functional
Rattus norvegicus [18] = assay: Antipsychotic activity in Sprague-Dawley rat psychosis model assessed as reversal of MK-801-induced stereotypy at 1 mg/kg, po administered 2 hrs prior to MK-801 challenge measured every 5 mins for 1 hr starting 15 mins post MK-801 injection relative to vehicle-treated control; type: functional
Rattus norvegicus [19] = assay: Antipsychotic activity in Sprague-Dawley rat psychosis model assessed as reversal of MK-801-induced stereotypy at 10 mg/kg, po administered 2 hrs prior to MK-801 challenge measured every 5 mins for 1 hr starting 15 mins post MK-801 injection relative to vehicle-treated control; type: functional
Rattus norvegicus [20] = assay: Antipsychotic activity in Sprague-Dawley rat psychosis model assessed as reversal of MK-801-induced ataxia at 3 mg/kg, po administered 2 hrs prior to MK-801 challenge measured every 5 mins for 1 hr starting 15 mins post MK-801 injection relative to vehicle-treated control; type: functional
Rattus norvegicus [21] = assay: Antipsychotic activity in Sprague-Dawley rat conditioned avoidance response model assessed as avoidance of shock at 1 mg/kg, po measured after 2 hrs relative to vehicle-treated control; type: functional
Rattus norvegicus [22] = assay: Antipsychotic activity in po dosed Sprague-Dawley rat conditioned avoidance response model assessed as avoidance of shock measured after 2 hrs relative to vehicle-treated control; type: functional
Rattus norvegicus [23] = assay: Antipsychotic activity in Sprague-Dawley rat conditioned avoidance response model assessed as response failure at 10 mg/kg, po measured after 2 hrs relative to vehicle-treated control; type: functional, organism-based; design: dose 10 mg/kg
Rattus norvegicus [24] = assay: Antipsychotic activity in Sprague-Dawley rat prepulse inhibition deficit model assessed as reversal of MK-801-induced effect at 3 mg/kg, po administered 110 mins prior to MK-801 challenge relative to vehicle-treated control; type: functional; design: scale not given: the % may be the effect or the level left
Rattus norvegicus [25] = assay: Antipsychotic activity in Sprague-Dawley rat prepulse inhibition deficit model assessed as reversal of MK-801-induced effect at 10 mg/kg, po administered 110 mins prior to MK-801 challenge relative to vehicle-treated control; type: functional; design: scale not given: the % may be the effect or the level left
Mus musculus = assay: Ratio of ED50 for po dosed Swiss albino mouse assessed as inhibition of apomorphine-induced sniffing behavior administered 30 mins prior to apomorphine challenge to ED50 for po dosed Swiss albino mouse assessed as inhibition of apomorphine-induced climbing behavior administered 30 mins prior to apomorphine challenge; type: functional
[26] = Oral bioavailability in Swiss albino mouse at 10 mg/kg […]; type: ADME, organism-based; conditions: in vivo

Work on `Cn1cc(-c2ccc(Oc3nccnc3-c3ccncc3)cc2)c2ncccc21` yielded an inhibition [1] of 98%, an IC50 [2] of 6.3 nM and an IC50 [3] of 11.7 nM. The inhibition [4] was 42.4%, the inhibition [5] was 6.3% and the inhibition [6] was 0%. It also gave an inhibition [7] of 33.8%, an inhibition [8] of 0.8% and a remaining at 1 h [9] of 51%. For the same molecule, the remaining at 1 h [10] was 46.2%, the remaining at 1 h [11] was 65.8% and the remaining at 1 h [12] was 70.5%. It also gave a half-life [13] of 10.4 h, a Cmax [14] of 27600 ng/mL and a half-life [15] of 4.4 h. The clearance [16] was 68.4 mL/min/kg, the Activity (Rattus norvegicus [17]) was 74% and the Activity (Rattus norvegicus [18]) was 95%. For the same molecule, the Activity (Rattus norvegicus [19]) was 99%, the Activity (Rattus norvegicus [20]) was 59% and the Activity (Rattus norvegicus [21]) was 17%. For the same molecule, the Activity (Rattus norvegicus [22]) was “Dose-dependent effect”, the ED50 (Rattus norvegicus [22]) was 2.08 mg/kg and the Activity (Rattus norvegicus [23]) was “Active”. The Activity (Rattus norvegicus [24]) was 64%, the Activity (Rattus norvegicus [25]) was 88% and the “Ratio ED50” value (Mus musculus) was 10.63. It also gave a bioavailability [26] of 8%.
